Marks after values point to notes of the source that are not given here.
Assays:
RAW 264.7 macrophages = conditions: cited from earlier work
Experimental: A peptide concentration of 200 µg/mL was selected based on preliminary cytotoxicity screening using RAW 264.7 macrophage cells, which confirmed that this dose was non-toxic under the experimental conditions.

RAW 264.7 cells = conditions: RAW 264.7, 24 h, 0–200 µg/mL, SRB assay
Experimental: The cytotoxicity of synthetic bioactive peptides was evaluated using the sulforhodamine B (SRB) colorimetric assay, as described by Vichai and Kirtikara. Briefly, RAW 264.7 murine macrophage cells were seeded at a 2 × 10^4 cells/well density in 96-well plates and incubated for 24 h. The cells were then treated with various concentrations of peptides (0–200 μg/mL) for an additional 24 h. After treatment, the cells were fixed with cold trichloroacetic acid (TCA) and stained with 0.4% (w/v) SRB in 1% (v/v) acetic acid. Unbound dye was removed by washing, and protein-bound SRB was solubilized using […] Tris base solution. Absorbance was measured at 520 nm using a microplate reader, and cell viability was calculated as a percentage relative to untreated control cells. Non-cytotoxic concentrations of the peptides were subsequently used for further investigation of their anti-inflammatory effects on LPS-induced nitric oxide (NO) production in RAW 264.7 cells.

[1] = ABTS radical scavenging assay; conditions: for Antioxidant Activity: ABTS, peptide 500 μM (table footnote), 30 min, absorbance 734 nm, mean ± SD, n = 3
Experimental: Antioxidant activity analysis was performed in the dark. DPPH, ABTS radical scavenging activity, and the ferric-reducing antioxidant power (FRAP) assay were determined following the method described by Jirarat et al. (2024). Concisely, samples were diluted using distilled water to the desired concentration. For the DPPH assay, a 500 μL sample was mixed with 500 μL of ethanolic DPPH solution (80 mg/L) for 60 min before measuring the absorbance at 517 nm. The ABTS radical (ABTS+) solution was prepared by incubating the mixture of 2.45 mM potassium persulfate solution and 7 mM ABTS solution (1:1, v/v) for 12–16 h. The deionized water was used for diluting the ABTS^+ solution to 0.70 ± 0.02 at an absorbance of […]. After that, the ABTS assay was performed by incubating a 50 μL sample with 850 μL of prepared ABTS^+ solution for 30 min, and the radical scavenging activity was determined by measuring the absorbance at 734 nm. Furthermore, the FRAP assay was performed by preparing the FRAP reagent, which consisted of 300 mM acetate buffer (pH 3.6), 20 mM FeCl3·6H2O, and 10 mM TPTZ in 40 mM HCl, mixed in a 10:1:1 volume ratio. Then, 100 μL of the sample was mixed with 900 μL the FRAP reagent and incubated for 30 min. […] The antioxidant capacity in all assays was expressed as micromoles of Trolox equivalents per liter (μmol TE/L) based on a Trolox standard curve.

[2] = system: Dipeptidyl Peptidase-IV (DPP-IV); conditions: peptide 5000 μM; Gly-Pro-p-nitroanilide, Tris-HCl pH 8.0, 37 °C, 60 min; absorbance 385 nm; mean ± SD, n = 3
Experimental: The DPP-IV inhibitory activity was determined using a modified method based on Lacroix and Li-Chan [22]. Briefly, the synthetic peptide was diluted in 100 mM Tris-HCl buffer (pH 8.0) to a final concentration of 5000 μM. The reaction mixture was prepared in a 1.5 mL microcentrifuge tube by combining 75 μL of Gly-Pro-p-nitroanilide (1.59 mM), 50 μL of Tris-HCl buffer (pH 8.0), and 25 μL of the peptide sample. The mixture was pre-incubated at 37 °C for 10 min. Following pre-incubation, 50 μL of DPP-IV enzyme solution (0.01 U/mL) was added, and the reaction was incubated at 37 °C for 60 min. The reaction was terminated by adding 300 μL of 99.8% ethanol. The absorbance of the reaction mixture was measured at 385 nm, and the DPP-IV inhibitory activity was calculated and expressed as a percentage of inhibition.
ACE inhibitory activity was assessed at a peptide concentration of 500 μM, while DPP-IV inhibitory activity and antioxidant activity (ABTS radical scavenging assay) were evaluated at a concentration of 5000 μM.

Substance: DYKKY [peptide derived from whey protein hydrolysates]
- cytotoxic effects (RAW 264.7 macrophages): no cytotoxic effects

Substance: FDYGKY [phenylalanine-aspartic acid-tyrosine-glycine-lysine-tyrosine]
- cytotoxicity (RAW 264.7 cells): non-toxic
- Antioxidant Activity [1]: 50 ± 1 ^a %
- DPP-IV Inhibition [2]: 0%

Substance: FLGY [phenylalanine-leucine-glycine-tyrosine]
- cytotoxicity (RAW 264.7 cells): non-toxic
- Antioxidant Activity [1]: 48 ± 1 ^a %
- ABTS radical scavenging activity ([1]; peptide 5000 μM as printed in the text): 48%
- DPP-IV Inhibition [2]: 19 ± 1 ^a %

Substance: GTWY [peptide derived from whey protein hydrolysates]
- cytotoxic effects (RAW 264.7 macrophages): no cytotoxic effects

Substance: phenylalanine-tyrosine-aspartic acid-threonine-tyrosine-tyrosine [FYDTYY]
- cytotoxicity (RAW 264.7 cells): non-toxic
- DPP-IV Inhibition [2]: 18 ± 3 ^a %
